The record followed here is EPA's ToxRefDB 2.

SMILES strings stand for the structures.

In data set [1] the test system is rat. As to conditions: Chronic toxicity; sprague dawley; Oral; Feed; dose end: 78 week; group: systemic; systemic / clinical chemistry / glucose / glucose + systemic / in life observation / body weight / body weight gain + systemic / in life ….
Data set [2] has as its system rabbit. Particulars: Prenatal developmental toxicity study; new zealand white; Oral; Gavage/Intubation; dose end: 19 GD; group: maternal; systemic / in life observation / body weight / body weight + systemic / in life observation / clinical signs / [other] + systemic / in life ….
Data set [3] has as its system rat. Particulars: Carcinogenicity; sprague dawley; Oral; Feed; dose end: 104 week; group: systemic; systemic / clinical chemistry / glucose / glucose + systemic / in life observation / body weight / body weight gain + systemic / in life ….
In data set [4] the test system is mouse. Particulars: Subchronic oral toxicity in rodents, b6c3f1, Feed, dose end: 90 day.
The test system of data set [5] is rat. As to conditions: Subchronic oral toxicity in rodents, fischer, Feed, dose end: 90 day.
The test system of data set [6] is mouse. Particulars: Multigenerational reproductive toxicity study; cd1; Oral; Feed; dose end: 2 generation; group: offspring; systemic / in life observation / body weight / offspring (pup) weight.
Data set [7] relates to dog. As to conditions: Subchronic oral toxicity in nonrodent, beagle, Capsule, dose end: 90 day, group: systemic, systemic / in life observation / clinical signs / [other] + systemic / in life observation / clinical signs / feces, discoloration + ….
For data set [8], the system named is dog. Particulars: Chronic toxicity, beagle, Oral, Capsule, dose end: 53 week, group: systemic.
Data set [9] deals with mouse. Particulars: Carcinogenicity; cd1; Oral; Feed; dose end: 18 month; group: systemic; systemic / in life observation / body weight / body weight + systemic / in life observation / body weight / body weight gain + systemic / in….
For data set [10], the system named is rat. Particulars: Prenatal developmental toxicity study, wistar, Oral, Gavage/Intubation, dose end: 16 GD.
Data set [11] has as its system rat. As to conditions: Subchronic oral toxicity in rodents, sprague dawley, Feed, dose end: 90 day, group: systemic.
For data set [12], the system named is rat. As to conditions: Multigenerational reproductive toxicity study, sprague dawley, Oral, Feed, dose end: 3 generation.
Data set [13] has as its system rat. Particulars: Combined chronic toxicity/carcinogenicity, sprague dawley, Oral, Feed, dose end: 2 year, group: systemic.
The test system of data set [14] is rat. Particulars: Subchronic oral toxicity in rodents, sprague dawley, Feed, dose end: 90 day, group: systemic, systemic / in life observation / body weight / body weight gain + systemic / pathology gross / eye / opacity + systemic / pathology ….
The subject of data set [15] is mouse. Particulars: Chronic toxicity; cd1; Oral; Feed; dose end: 1 year; group: systemic; systemic / in life observation / body weight / body weight gain + systemic / in life observation / food consumption / food efficiency.
For data set [16], the system named is mouse. Particulars: Carcinogenicity; b6c3f1; Oral; Feed; dose end: 2 year; group: systemic; systemic / in life observation / body weight / body weight.
Data set [17] deals with rat. Particulars: Carcinogenicity; fischer; Oral; Feed; dose end: 2 year; group: systemic; systemic / in life observation / body weight / body weight + systemic / pathology microscopic / kidney / hemosiderosis + systemic / ….
The test system of data set [18] is rat. Particulars: Developmental neurotoxicity study; wistar; Injection; Subcutaneous; dose end: 68 PND; group: cannot be grouped; developmental / offspring survival late / [other] / [other] + systemic / hematology / leukocyte (wbc) count differential / leukocyte (wbc….
The subject of data set [19] is mouse. As to conditions: Developmental neurotoxicity study; other; Oral; [Not Specified]; dose end: 90 PND; group: cannot be grouped; systemic / in life observation / body weight / offspring (pup) weight gain + systemic / in life observation / clinical signs / convulsions.
For data set [20], the system named is rat. As to conditions: Developmental neurotoxicity study; wistar; Injection; Subcutaneous; dose end: 42 PND; group: cannot be grouped; developmental / developmental malformation / general / crown-rump length + developmental / offspring survival late / [other] / [other] + ….
Data set [21] concerns rat. Particulars: Developmental neurotoxicity study; wistar; Oral; Water; dose end: 60 PND; group: cannot be grouped; systemic / in life observation / body weight / offspring (pup) weight.
Setting [22] is: group: maternal, reproductive / reproductive performance / estrous cycle / length.
Setting [23] is: group: systemic, systemic / clinical chemistry / 5' nucleotidase / 5' nucleotidase + systemic / clinical chemistry / alanine aminotransferase (alt/sgpt) / ….
Setting [24] is: group: systemic, systemic / in life observation / body weight / body weight gain + systemic / organ weight / liver / relative to body weight.
Setting [25] is: group: systemic, systemic / organ weight / liver / relative to body weight.
Where [26] appears, read: group: systemic, systemic / organ weight / liver / relative to body weight + systemic / clinical chemistry / bile acids / bile acids + systemic / in life ….
Setting [27] is: systemic / clinical chemistry / tyrosine / tyrosine + systemic / pathology microscopic / lymph node / erythrophagocytosis.
The mark [28] stands for this setting: systemic / clinical chemistry / tyrosine / tyrosine + systemic / pathology microscopic / lymph node / erythrophagocytosis + systemic / in ….
[29] abbreviates: group: developmental, developmental / developmental malformation / bone / unossified + developmental / developmental malformation / bone / bipartite ossification….
The mark [30] stands for this setting: group: maternal, systemic / in life observation / body weight / body weight gain + systemic / in life observation / food consumption / food consumption + ….
The mark [31] stands for this setting: systemic / organ weight / liver / absolute + systemic / organ weight / liver / relative to body weight.
The mark [32] stands for this setting: group: offspring, systemic / clinical chemistry / tyrosine / tyrosine.
Setting [33] is: group: parental, systemic / clinical chemistry / tyrosine / tyrosine.
Setting [34] is: group: parental, systemic / clinical chemistry / tyrosine / tyrosine + systemic / organ weight / liver / relative to body weight.
[35] abbreviates: group: reproductive, reproductive / offspring survival early / litter size / litter size.
Where [36] appears, read: group: reproductive, reproductive / offspring survival early / litter size / litter size + reproductive / offspring survival early / birth index / live birth ….
[37] abbreviates: systemic / in life observation / body weight / body weight + systemic / in life observation / body weight / body weight gain.

The term LOAEL denotes the lowest tested level that showed an adverse finding. The term NOAEL denotes the highest tested level that showed no adverse finding. In the case of `OC[C@H]1O[C@H](O[C@]2(CCl)O[C@H](CCl)[C@@H](O)[C@@H]2O)[C@H](O)[C@@H](O)[C@H]1Cl` [Sucralose], in [1], the LEL is 150 mg/kg/day, the LOAEL is greater than 15000 mg/kg/day, the NEL is less than 150 mg/kg/day and the NOAEL was no less than 15000 mg/kg/day. For the same molecule, in data set [2], the LEL amounted to 700 mg/kg/day, the LOAEL is greater than 700 mg/kg/day, the NEL came to 350 mg/kg/day and the NOAEL is no less than 700 mg/kg/day. For the same molecule, in data set [3], the LEL was determined as 150 mg/kg/day, the NEL was less than 150 mg/kg/day and the NOAEL was no less than 15000 mg/kg/day.
Consider `Cc1ccccc1O` [o-Cresol], for which the LEL in data set [4] (setting [22]) turned out to be 237 mg/kg/day; in data set [4] (setting [24]), 199 mg/kg/day; in data set [5] (setting [22]), 129 mg/kg/day; in data set [5] (setting [25]), 510 mg/kg/day; in data set [6], 624 mg/kg/day. The LOAEL in data set [4] (setting [22]) was greater than 3200 mg/kg/day; in data set [4] (setting [23]) it was greater than 3200 mg/kg/day; in data set [5] (setting [22]), greater than 2020 mg/kg/day; in data set [5] (setting [25]) it was 1020 mg/kg/day; in data set [6], greater than 624 mg/kg/day. The NOAEL in [4] (setting [22]) is no less than 3200 mg/kg/day; in [4] (setting [23]) it was no less than 3200 mg/kg/day; in data set [5] (setting [22]), no less than 2020 mg/kg/day; in [5] (setting [26]), 510 mg/kg/day; in [6], no less than 624 mg/kg/day. In addition, the NEL in [4] (setting [24]) was less than 199 mg/kg/day; in [5] (setting [22]), less than 129 mg/kg/day; in data set [5] (setting [26]) it was 247 mg/kg/day.
Take `CS(=O)(=O)c1ccc(C(=O)C2C(=O)CCCC2=O)c([N+](=O)[O-])c1` [Mesotrione]: the LEL in data set [7] was 600 mg/kg/day; in [8] (setting [28]), 10 mg/kg/day; in data set [9] it was 898 mg/kg/day; in data set [10] (setting [29]), 100 mg/kg/day; in data set [10] (setting [30]), 300 mg/kg/day; in data set [11] (setting [31]), 0.21 mg/kg/day. Further, the LEL in data set [12] (setting [32]) amounted to 0.3 mg/kg/day; in data set [12] (setting [34]), 0.3 mg/kg/day; in data set [12] (setting [35]) it was 1.1 mg/kg/day; in [13] (setting [37]), 0.06 mg/kg/day; in data set [14], 11 mg/kg/day; in data set [15], 1110 mg/kg/day. Further, the LOAEL in data set [7] is greater than 1000 mg/kg/day; in [8] (setting [27]), 10 mg/kg/day; in data set [9] it was 898 mg/kg/day; in data set [10] (setting [29]), 100 mg/kg/day; in [10] (group: maternal, systemic / in life observation / body weight / body weight gain + systemic / in life observation / food consumption / food consumption), 300 mg/kg/day; in data set [11] (systemic / pathology microscopic / eye / neovascularization + systemic / pathology microscopic / eye / opacity), 0.63 mg/kg/day. Further, the LOAEL in data set [12] (setting [32]) was determined as 0.3 mg/kg/day; in data set [12] (setting [33]), 0.3 mg/kg/day; in data set [12] (setting [35]), 1.1 mg/kg/day; in data set [13] (systemic / organ weight / kidney / absolute + systemic / organ weight / kidney / nos + systemic / organ weight / liver / absolute + systemic…) it was 0.48 mg/kg/day; in data set [14], 11 mg/kg/day; in data set [15], 1110 mg/kg/day. Moreover, the NEL in [7] is 100 mg/kg/day; in data set [8] (setting [28]), less than 10 mg/kg/day; in data set [9], 49.7 mg/kg/day; in data set [10] (setting [29]), less than 100 mg/kg/day; in [10] (setting [30]), 100 mg/kg/day; in data set [11] (setting [31]) it was less than 0.21 mg/kg/day. For the same molecule, the NEL in data set [12] (setting [32]) is less than 0.3 mg/kg/day; in data set [12] (setting [34]) it was less than 0.3 mg/kg/day; in data set [12] (setting [36]), 0.3 mg/kg/day; in data set [13] (setting [37]), less than 0.06 mg/kg/day; in data set [14] it was 0.09 mg/kg/day; in data set [15], 56.2 mg/kg/day. Moreover, the NOAEL in data set [7] is no less than 1000 mg/kg/day; in [8] (setting [27]), less than 10 mg/kg/day; in data set [9] it was 49.7 mg/kg/day; in [10] (setting [29]), less than 100 mg/kg/day; in data set [10] (setting [30]), 100 mg/kg/day; in data set [11] (systemic / pathology microscopic / eye / neovascularization + systemic / pathology microscopic / eye / opacity + systemic / clinical …), 0.41 mg/kg/day. Further, the NOAEL in [12] (setting [32]) was less than 0.3 mg/kg/day; in data set [12] (setting [33]), less than 0.3 mg/kg/day; in data set [12] (setting [36]), 0.3 mg/kg/day; in data set [14], 0.09 mg/kg/day; in data set [15] it was 56.2 mg/kg/day.
On to `c1ccc(N=Nc2ccccc2)cc1` [Azobenzene], for which, in data set [16], the LEL stood at 30 mg/kg/day, the LOAEL stood at 81.8 mg/kg/day and the NEL is less than 30 mg/kg/day. In [17], the LEL is 10 mg/kg/day, the LOAEL was greater than 20 mg/kg/day, the NEL was less than 10 mg/kg/day and the NOAEL is no less than 20 mg/kg/day.
For the molecule `N[C@@H](CCC(=O)O)C(=O)[O-].[Na+]` [Sodium l-glutamate], in data set [18], the LOAEL is greater than 4000 mg/kg/day, the NEL was less than 4000 mg/kg/day and the NOAEL was no less than 4000 mg/kg/day. For the same molecule, in data set [19], the LEL came out at 2.5 mg/kg/day, the LOAEL is greater than 4 mg/kg/day, the NEL is less than 2.5 mg/kg/day and the NOAEL was no less than 4 mg/kg/day. Besides, in [20], the LEL turned out to be 0.004 mg/kg/day, the LOAEL was greater than 0.004 mg/kg/day, the NEL was less than 0.004 mg/kg/day and the NOAEL is no less than 0.004 mg/kg/day. In addition, in [21], the LEL was determined as 10000 mg/kg/day, the NEL was less than 10000 mg/kg/day and the NOAEL is no less than 10000 mg/kg/day.
